According to the supplement of paper PMC7840683:
± gives the standard deviation of the averaged measurements.

System: HepaRG
Assay: LDH release cytotoxicity, % of total lysis control; higher = more cytotoxic
Details: 48 h
Method in brief: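 HepaRG cells from a single lot were plated on collagen I-coated 96-well plates and treated in duplicate for 48 h with eight-point half-log series of test chemicals, starting at 100 µM, in serum-free induction medium containing 0.5% DMSO. Total lysis wells were given 0.1% Triton X. LDH released into 50 µL of spent medium was measured as resorufin fluorescence with CytoTox-ONE on a Tecan Safire. Percent cytotoxicity was normalized to on-plate vehicle and total lysis controls and then averaged across duplicates.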

SMILES	LDH release cytotoxicity (0.03162 µM)	LDH release cytotoxicity (0.1 µM)	LDH release cytotoxicity (0.3162278 µM)	LDH release cytotoxicity (1 µM)	LDH release cytotoxicity (3.16228 µM)	LDH release cytotoxicity (10 µM)	LDH release cytotoxicity (31.6228 µM)	LDH release cytotoxicity (100 µM)	LDH release cytotoxicity (0.0324133 µM)	LDH release cytotoxicity (0.1025 µM)	LDH release cytotoxicity (0.324134 µM)	LDH release cytotoxicity (1.025 µM)	LDH release cytotoxicity (3.24133 µM)	LDH release cytotoxicity (10.25 µM)	LDH release cytotoxicity (32.4133 µM)	LDH release cytotoxicity (102.5 µM)
c1ccc2cc3c(ccc4ccccc43)cc2c1 [Benz(a)anthracene]	0.322 ± 0.091%	-1.2 ± 0.19%	-1.02 ± 0.054%	-1.2 ± 0.3%	-0.916 ± 0.025%	-0.353 ± 0.34%	-1.51 ± 0.18%	-1.17 ± 0.12%								
ClC(Cl)c1ccccc1 [Benzal chloride]	0.273 ± 0.17%	-0.75 ± 0.78%	-0.461 ± 0.39%	-1.3 ± 1.2%	-1.29 ± 0.9%	0.533 ± 0.9%	1.06 ± 1.1%	2.15 ± 0.29%								
Nc1ccc(-c2ccc(N)cc2)cc1 [Benzidine]	-0.869 ± 4.3%	-2.2 ± 0.13%	-3.09 ± 0.054%	-2.37 ± 0.27%	-2.3 ± 0.28%	0.338 ± 4%	-0.733 ± 0.045%	0.306 ± 0.029%								
c1ccc2c(c1)-c1cccc3c1c-2cc1ccccc13 [Benzo(b)fluoranthene]	-1.73 ± 0.79%	-2.8 ± 0.051%	-1.72 ± 0.55%	-2.85 ± 1%	-1.02 ± 0.32%	1.06 ± 1.1%	5.33 ± 2.5%	5.52 ± 2.2%								
O=C(O)c1ccccc1 [Benzoic acid]									-0.341 ± 0.5%	-0.867 ± 1.3%	-1.11 ± 1.2%	-0.944 ± 0.73%	-0.925 ± 0.73%	0.28 ± 0.2%	0.174 ± 0.36%	0.953 ± 0.28%
ClC(Cl)(Cl)c1ccccc1 [Benzotrichloride]	-0.669 ± 1.1%	-1.85 ± 0.77%	-1.72 ± 0.38%	-1.748 ± 0.0065%	-1.92 ± 0.31%	-2.01 ± 0.6%	-1.18 ± 0.47%	-0.246 ± 0.61%								
OCc1ccccc1 [Benzyl alcohol]	-0.977 ± 0.76%	-1.47 ± 0.31%	-1.57 ± 1.4%	-2.41 ± 1.3%	-1.69 ± 0.91%	-1.73 ± 1.6%	-1.32 ± 1.4%	-1.07 ± 1.2%								
CCCCOC(=O)c1ccccc1C(=O)OCc1ccccc1 [Benzyl butyl phthalate]	-0.944 ± 0.033%	-1.99 ± 0.74%	-1.76 ± 0.079%	-1.14 ± 0.11%	-1.707 ± 0.0079%	-2.01 ± 0.3%	-0.748 ± 0.15%	0.329 ± 0.83%								
CCCCC(CC)COC(=O)CCCCC(=O)OCc1ccccc1 (configuration not stated) [Benzyloctyl adipate]	-0.155 ± 0.27%	-0.43 ± 0.37%	0.101 ± 0.76%	-0.128 ± 1.1%	1.13 ± 0.71%	0.566 ± 0.22%	0.4 ± 0.39%	1.95 ± 0.065%								
O=c1[nH]c2ccc(S(=O)CCN3CCC(Cc4ccc(F)cc4)CC3)cc2o1 (configuration not stated) [Besonprodil]	-2.69 ± 1.3%	-1.42 ± 0.9%	-1.87 ± 0.18%	-0.983 ± 0.15%	-0.767 ± 0.42%	-1.16 ± 0.83%	-1.7 ± 0.064%	2.32 ± 2.9%								
COc1ccc(-c2ccccc2)cc1NNC(=O)OC(C)C [Bifenazate]	-1.53 ± 0.49%	-1.35 ± 0.97%	-1.03 ± 0.83%	-1.59 ± 0.54%	-1.11 ± 0.95%	-0.547 ± 1.4%	-0.468 ± 0.53%	1.1 ± 1.1%								
Cc1c(COC(=O)C2C(C=C(Cl)C(F)(F)F)C2(C)C)cccc1-c1ccccc1 (configuration not stated) [Bifenthrin]	-1.61 ± 1.9%	-2.22 ± 0.62%	-2.26 ± 0.28%	-2.12 ± 0.18%	-1.77 ± 0.75%	-1.98 ± 0.032%	-2.13 ± 0.62%	-0.496 ± 0.96%								
c1ccc(-c2ccccc2)cc1 [Biphenyl]	-3.64 ± 0.49%	-2.69 ± 0.98%	-2.88 ± 0.12%	-2.22 ± 0.45%	-2.07 ± 0.53%	-1.35 ± 0.15%	-1.49 ± 0.43%	0.572 ± 0.68%								
ClCCOCCCl [Bis(2-chloroethyl) ether]	-2.26 ± 0.94%	-1.98 ± 0.48%	-2.69 ± 0.3%	-2.69 ± 0.29%	-1.96 ± 0.21%	-2.12 ± 0.39%	-2.25 ± 0.35%	-0.123 ± 0.23%								
CCCCC(CC)COC(=O)CCCCCCCCC(=O)OCC(CC)CCCC (configuration not stated) [Bis(2-ethylhexyl) decanedioate]	-11.5 ± 0.13%	-10.5 ± 0.46%	-10.7 ± 0.93%	-10.2 ± 0.19%	-10.2 ± 0.27%	-10.1 ± 1.7%	-9.5 ± 0.95%	-8.97 ± 0.81%								
CCCCC(CC)COC(=O)CCCCCCCC(=O)OCC(CC)CCCC (configuration not stated) [Bis(2-ethylhexyl) nonanedioate]	-1.88 ± 0.055%	-2.868 ± 0.0068%	-2.85 ± 0.81%	-3 ± 0.21%	-2.9 ± 0.15%	-2.46 ± 0.2%	-2.95 ± 0.69%	-1.1 ± 0.36%								
CCCCC(CC)COC(=O)c1ccc(C(=O)OCC(CC)CCCC)cc1 (configuration not stated) [Bis(2-ethylhexyl) terephthalate]	-2 ± 1.1%	-1.13 ± 0.62%	-1.76 ± 0.63%	-2.5 ± 0.76%	-2.35 ± 0.77%	-2.12 ± 0.71%	-2.26 ± 0.82%	-1.14 ± 0.6%								
CCCCC(CC)COC(=O)CCCCC(=O)OCC(CC)CCCC (configuration not stated) [Bis(2-ethylhexyl)hexanedioate]	-2.21 ± 0.34%	-2.881 ± 0.019%	-3.04 ± 0.8%	-2.88 ± 0.9%	-2.66 ± 0.66%	-2.86 ± 0.26%	-2.54 ± 0.088%	-1.41 ± 0.75%								
Oc1ccc(C(c2ccc(O)cc2)(C(F)(F)F)C(F)(F)F)cc1 [Bisphenol AF]	-1.31 ± 0.014%	-1.4 ± 0.37%	-1.16 ± 0.18%	-1.45 ± 0.031%	-0.575 ± 0.055%	-1.57 ± 0.15%	-1.62 ± 0.47%	83.2 ± 2.1%								
